Consider 16 molecules from patent US5811456A, “Monoamine oxidase B inhibitors, processes for their preparation and use thereof” (priority 1994, dated 1998).

The target of one data set is T1, rat brain MAO B (Rattus norvegicus, UniProt P19643).
T1 construct: makes it possible to obtain a pellet enriched in mitochondria; from tissue; host or cells: Wistar rat brain without cerebellum, mitochondria-enriched pellet
T1 sequence (P19643 1-520): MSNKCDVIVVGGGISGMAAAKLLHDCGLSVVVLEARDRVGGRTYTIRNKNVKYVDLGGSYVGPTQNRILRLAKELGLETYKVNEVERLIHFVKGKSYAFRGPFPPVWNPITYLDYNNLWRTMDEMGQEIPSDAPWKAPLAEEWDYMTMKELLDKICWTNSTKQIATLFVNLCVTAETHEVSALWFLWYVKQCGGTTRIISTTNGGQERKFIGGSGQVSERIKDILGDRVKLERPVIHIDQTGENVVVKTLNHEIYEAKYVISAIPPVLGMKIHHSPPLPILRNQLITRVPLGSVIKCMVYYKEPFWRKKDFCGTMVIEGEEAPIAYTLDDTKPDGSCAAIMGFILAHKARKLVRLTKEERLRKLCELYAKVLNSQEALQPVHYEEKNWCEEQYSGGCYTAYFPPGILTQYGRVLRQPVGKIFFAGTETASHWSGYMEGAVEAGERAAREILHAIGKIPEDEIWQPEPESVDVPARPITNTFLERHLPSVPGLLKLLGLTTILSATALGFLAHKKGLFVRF
Briefly: Inhibitory activity toward rat brain MAO B in vitro (14C-beta-phenylethylamine substrate). The class given is biochemical.

Data set [1] can be described thus: MTT cytotoxicity test on adherent cells. Type of data set: cell-based. The following applies: human, hela ohio cells; for CC50 at 24 h: read-out: LD50 (concentration for which 50% of the cells are killed); for MNTC at 24 h: read-out: MC100 (maximum concentration for which all the cells are alive). (In general: Formazan colour is commonly taken as a measure of viable cells.)

Data set [2] is described as follows: Cytotoxicity test on the cells in suspension (Trypan blue). Type of data set: cell-based. The following applies: human, daudi cells; for CC50 at 24 h: read-out: LD50 (concentration for which 50% of the cells are killed); for MNTC at 24 h: read-out: MC100 (maximum concentration for which all the cells are alive).
The next data set has as its system MAO A. The following applies: background; cited from earlier work.
The target of another data set is T2, monoamine oxidase B (Rattus norvegicus, UniProt P19643).
T2 construct: from tissue; host or cells: rat brain mitochondria (inferred from section 21.1; not restated in section 21.2)
T2 sequence (P19643 1-520): T1 sequence (P19643 1-520)
Briefly: Reversibility of the inhibitory activity toward MAO B (residual activity before and after washing). The following applies: mean of 4 assays. Type of data set: biochemical.

A further data set concerns the target T3, rat brain MAO A (Rattus norvegicus, UniProt P21396).
T3 construct: makes it possible to obtain a pellet enriched in mitochondria; from tissue; host or cells: Wistar rat brain without cerebellum, mitochondria-enriched pellet
T3 sequence (P21396 1-526): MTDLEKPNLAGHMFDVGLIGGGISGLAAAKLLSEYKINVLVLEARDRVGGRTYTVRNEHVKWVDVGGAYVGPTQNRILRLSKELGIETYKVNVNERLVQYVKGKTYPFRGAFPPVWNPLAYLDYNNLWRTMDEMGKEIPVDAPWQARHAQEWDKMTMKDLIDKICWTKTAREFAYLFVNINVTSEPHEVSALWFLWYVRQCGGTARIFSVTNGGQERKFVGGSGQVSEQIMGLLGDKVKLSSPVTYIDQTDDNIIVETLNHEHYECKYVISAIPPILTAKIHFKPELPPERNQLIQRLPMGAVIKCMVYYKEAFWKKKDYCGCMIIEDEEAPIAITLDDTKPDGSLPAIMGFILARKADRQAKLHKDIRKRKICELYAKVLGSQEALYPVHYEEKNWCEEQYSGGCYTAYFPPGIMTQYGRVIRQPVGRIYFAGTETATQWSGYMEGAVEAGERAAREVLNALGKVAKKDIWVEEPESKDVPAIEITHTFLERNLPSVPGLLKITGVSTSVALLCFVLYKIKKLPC
Briefly: Inhibitory activity toward rat brain MAO A in vitro (14C-serotonin substrate). The class given is biochemical.

For data set [3] the following is noted: background; cited from earlier work.
[4] abbreviates: ap: after preincubation (30 minutes, 37° C.), read-out: IC50 MAO B.
[5] abbreviates: wp: without preincubation, read-out: IC50 MAO B.
[6] abbreviates: ap: after preincubation (30 minutes, 37° C.).

Molecules are shown by their SMILES. Read-outs that look alike come from different tables or passages of the source.

A word on the IC50: it is the midpoint of a concentration-inhibition curve.

As to `CNC(=O)N(CCC#N)N=Cc1ccccc1` [I-c1, Benzaldehyde (2-cyanoethyl)(N-methylcarbamoyl)hydrazone], the IC50 at rat brain MAO B (setting [4]) stood at 120 µM; on rat brain MAO B (setting [5]), 280 µM.
Regarding `CC(=O)N(CCC#N)N=Cc1ccc(OCc2ccc([N+](=O)[O-])cc2)cc1` [I-a2.2], the CC50 at 24 h in data set [1] was found to be 30 µM; in data set [2] it was 22 µM. Also, the MNTC at 24 h in data set [1] came to 650 nM; in data set [2], 10 µM. The IC50 on rat brain MAO B (setting [4]) turned out to be 1.4 µM; at rat brain MAO B (setting [5]), 3 µM.
For the molecule `C#CCN(C)CCCOc1ccc(Cl)cc1Cl` [clorgyline], in the data set on MAO A, the “inhibition of MAO A (in words)” value is recorded as “inhibit MAO A”.
On to `CCOC(=O)N(CCC#N)N=Cc1ccc(OCc2ccccc2)cc1` [I-b2, 4-(Benzylozy)benzaldehyde (2-cyanoethyl)(ethoxycarbonyl)hydrazone], for which the figures for the IC50 on rat brain MAO B (setting [4]) and at rat brain MAO B (setting [5]) were 6.3 µM and 22 µM, respectively.
On to `CC(=O)N(CCC#N)N=Cc1ccc(OCc2ccccc2)cc1` [I-a2, 4-(Benzyloxy)benzaldehyde acetyl(2-cyanoethyl)hydrazone], for which the CC50 at 24 h in data set [1] and in data set [2] was 100 µM throughout. For the same molecule, the MNTC at 24 h stood at 10000 nM in data set [1] and 10 µM in data set [2]. Further, the IC50 was 0.003 µM on rat brain MAO B (setting [4]) and 0.035 µM on rat brain MAO B (setting [5]). The “Percentage of residual MAO activity” value on monoamine oxidase B (after washing, 30 min) stood at 105%; on monoamine oxidase B (before washing, 30 min incubation at 37° C.) it was 14%.
Regarding `CCOC(=O)N(CCO)N=Cc1ccc(OCc2ccccc2)cc1` [I-b4, 4-(Benzyloxy)benzaldehyde (2-hydroxyethyl)(ethoxycarbonyl)hydrazone], the figures for the concentration for half-maximal inhibition (IC50) at rat brain MAO B (setting [4]) and at rat brain MAO B (setting [5]) were 10 µM and 35 µM, respectively.
As for `CC(=O)N(CCC#N)N=Cc1ccc(OCc2ccc(C)cc2)cc1` [I-a2.1], the results for the IC50 at rat brain MAO B (setting [4]) and at rat brain MAO B (setting [5]) were 0.69 µM and 43 µM, respectively.
Consider `CC(=O)N(CCC#N)N=Cc1ccc(OCCc2ccccc2)cc1` [I-a6, 4-(2-Phenylethozy)benzaldehyde acetyl(2-cyanoethyl)hydrazone], for which the IC50 at rat brain MAO B (setting [4]) was 0.015 µM; on rat brain MAO B (setting [5]) it was 3 µM; against rat brain MAO A (setting [6]) it was 6.8 µM; on rat brain MAO A (wp: without preincubation) it was 53 µM.
On to `COc1ccc(COc2ccc(C=NN(CCC#N)C(C)=O)cc2)cc1` [I-a2.4], for which the values for the CC50 at 24 h in data set [1] and in data set [2] were 40 µM and 65 µM, respectively. The MNTC at 24 h is 2300 nM in data set [1] and 12.5 µM in data set [2]. Also, the IC50 at rat brain MAO B (setting [4]) came out at 2.15 µM; on rat brain MAO B (setting [5]) it was 28 µM.
In the case of `C#CCN(C)Cc1ccccc1` [pargyline], the “antidepressant effects (in words)” value in data set [3] was “lack antidepressant effects”. Moreover, the “inhibition of MAO A (in words)” value with MAO A was “inhibit MAO A”.
`CC(=O)N(CCC#N)N=Cc1ccc(OCc2ccc(Cl)cc2)cc1` [I-a2.3]: the results for the MNTC at 24 h in data set [1] and in data set [2] were 600 nM and 10 µM, respectively. Besides, the IC50 on rat brain MAO B (setting [4]) was found to be 0.245 µM; at rat brain MAO B (setting [5]) it was 11.3 µM. In data set [2], the CC50 at 24 h is 50 µM.
With `C#CCN(N=Cc1ccc(OCc2ccccc2)cc1)C(C)=O` [I-a10, 4-(Benzyloxy)benzaldehyde acetylpropargylhydrazone], the values for the IC50 on rat brain MAO B (setting [4]) and on rat brain MAO B (setting [5]) were 0.36 µM and 4.1 µM, respectively.
As for `C#CCN(C)C(C)Cc1ccccc1` (stereo not shown) [Deprenyl], the “antidepressant effects (in words)” value in data set [3] is listed as “lack antidepressant effects”.
As for `CC(=O)N(CCC#N)N=Cc1ccc(OCc2ccc(Cl)cc2Cl)cc1` [I-a2.5, 4-[(2,4-Dichlorobenzyl)oxy]benzaldehyde acetyl(2-cyanoethyl)hydrazone], the IC50 on rat brain MAO B was 0.38 µM. On rat brain MAO B (wp: without preincubation), the “IC50 MAO B” value is listed as “precipitate”.
Take `CNC(=O)N(CCC#N)N=Cc1ccc(OCc2ccccc2)cc1` [I-c2, 4-(benzyloxy)benzaldehyde (2-cyanoethyl)(N-methylcarbamoyl)hydrazone]: the half-maximal inhibitory concentration (IC50) worked out at 2.5 µM at rat brain MAO B (setting [4]) and 1.8 µM at rat brain MAO B (setting [5]).
For the molecule `CC(=O)N(CCO)N=Cc1ccc(OCc2ccccc2)cc1` [I-a4, 4-(Benzyloxy)benzaldehyde acetyl(2-hydroxyethyl)hydrazone], the CC50 at 24 h in data set [1] and in data set [2] was 100 µM in each case. Further, the MNTC at 24 h in data set [1] was determined as 10000 nM; in data set [2], 10 µM. Besides, the IC50 at rat brain MAO B (setting [4]) is 0.0063 µM; on rat brain MAO B (setting [5]) it was 0.028 µM; against rat brain MAO A (setting [6]) it was 50 µM; at rat brain MAO A (wp: without preincubation) it was 50 µM.
